Data set [1] deals with T1, cAMP and cAMP-inhibited cGMP 3',5'-cyclic phosphodiesterase 10A (Homo sapiens, UniProt Q9Y233). The experiment in a line: Inhibition of human recombinant GST-tagged PDE10A using [3H]-cAMP as substrate at 1 uM after 30 mins by scintillation proximity assay.
Data set [2] deals with High affinity 3',5'-cyclic-AMP phosphodiesterase 7A (Homo sapiens) (UniProt Q13946). The experiment in a line: Inhibition of human recombinant PDE7A using [3H]-cAMP as substrate at 1 uM after 30 mins by two-step radiometric assay.
Data set [3] in a line: Metabolic stability in cynomolgus monkey liver microsomes incubated for 10 mins prior to NADPH addition measured after 60 mins by LC/MS/MS analysis. The format is ADME, Macaca fascicularis. The note with it: read-out: Stability. In general terms: Liver microsomes are a subcellular fraction often used to study metabolism.
The target in data set [4] is T2, cAMP and cAMP-inhibited cGMP 3',5'-cyclic phosphodiesterase 10A (Rattus norvegicus, UniProt Q9QYJ6).
T2 sequence (Q9QYJ6 whole entry): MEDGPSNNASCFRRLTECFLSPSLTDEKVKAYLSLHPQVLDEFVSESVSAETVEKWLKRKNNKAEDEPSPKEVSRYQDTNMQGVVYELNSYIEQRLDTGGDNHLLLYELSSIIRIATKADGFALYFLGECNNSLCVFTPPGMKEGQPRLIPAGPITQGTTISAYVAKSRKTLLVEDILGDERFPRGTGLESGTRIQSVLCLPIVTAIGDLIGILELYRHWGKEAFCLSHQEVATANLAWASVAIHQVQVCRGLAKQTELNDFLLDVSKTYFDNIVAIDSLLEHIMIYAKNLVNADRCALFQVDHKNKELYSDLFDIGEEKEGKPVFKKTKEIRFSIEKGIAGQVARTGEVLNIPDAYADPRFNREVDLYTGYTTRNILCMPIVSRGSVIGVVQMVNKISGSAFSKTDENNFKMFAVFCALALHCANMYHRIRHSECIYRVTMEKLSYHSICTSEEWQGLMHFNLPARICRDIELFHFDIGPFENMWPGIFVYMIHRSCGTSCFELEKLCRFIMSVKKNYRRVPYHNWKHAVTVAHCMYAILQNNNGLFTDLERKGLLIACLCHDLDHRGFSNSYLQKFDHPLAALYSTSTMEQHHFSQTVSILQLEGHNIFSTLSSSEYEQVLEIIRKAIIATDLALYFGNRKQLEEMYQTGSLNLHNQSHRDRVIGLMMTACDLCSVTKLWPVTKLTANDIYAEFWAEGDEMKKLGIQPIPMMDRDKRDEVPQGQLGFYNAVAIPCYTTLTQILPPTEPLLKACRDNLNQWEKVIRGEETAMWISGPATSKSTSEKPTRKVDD
The experiment in a line: Inhibition of rat recombinant GST-tagged PDE10A using [3H]-cAMP as substrate by scintillation proximity assay. Background: In a scintillation proximity assay essentially only radioactivity close to the scintillant gives light.

Data set [5] is described as follows: Metabolic stability in CD1 mouse liver microsomes incubated for 10 mins prior to NADPH addition measured after 60 mins by LC/MS/MS analysis. It counts as ADME. The note with it: read-out: Stability.
For data set [6], the target named is Dual 3',5'-cyclic-AMP and -GMP phosphodiesterase 11A (Homo sapiens) (UniProt Q9HCR9). The experiment in a line: Inhibition of human recombinant PDE11A using [3H]-cAMP as substrate at 10 uM after 30 mins by two-step radiometric assay.
Data set [7] addresses cGMP-specific 3',5'-cyclic phosphodiesterase (Homo sapiens) (UniProt O76074). Put plainly: Inhibition of human recombinant PDE5A using […] as substrate at 10 uM after 30 mins by scintillation proximity assay.
A short description of data set [8]: Metabolic stability in Wistar rat liver microsomes incubated for 10 mins prior to NADPH addition measured after 60 mins by LC/MS/MS analysis. The format is ADME. As to conditions: read-out: Stability.
A short description of data set [9]: Metabolic stability in Beagle dog liver microsomes incubated for 10 mins prior to NADPH addition measured after 60 mins by LC/MS/MS analysis. The note with it: read-out: Stability. The format is ADME, Canis lupus familiaris.
Data set [10] concerns the target High affinity 3',5'-cyclic-AMP phosphodiesterase 7A (Homo sapiens) (UniProt Q13946). The experiment in a line: Inhibition of human recombinant PDE7A using [3H]-cAMP as substrate at 10 uM after 30 mins by two-step radiometric assay.
Data set [11] can be described thus: Metabolic stability in human liver microsomes incubated for 10 mins prior to NADPH addition measured after 60 mins by LC/MS/MS analysis. As to conditions: read-out: Stability. The format is ADME.
The target of data set [12] is 3',5'-cyclic-AMP phosphodiesterase 4D (Homo sapiens) (UniProt Q08499). The experiment in a line: Inhibition of human recombinant PDE4D using [3H]-cAMP as substrate at 10 uM after 30 mins by two-step radiometric assay.
In data set [13] the target is T1, cAMP and cAMP-inhibited cGMP 3',5'-cyclic phosphodiesterase 10A. The experiment in a line: Inhibition of human recombinant GST-tagged PDE10A using [3H]-cAMP as substrate after 30 mins by scintillation proximity assay.
The target of data set [14] is T3, cAMP and cAMP-inhibited cGMP 3',5'-cyclic phosphodiesterase 10A (Mus musculus, UniProt Q8CA95).
T3 sequence (Q8CA95 whole entry): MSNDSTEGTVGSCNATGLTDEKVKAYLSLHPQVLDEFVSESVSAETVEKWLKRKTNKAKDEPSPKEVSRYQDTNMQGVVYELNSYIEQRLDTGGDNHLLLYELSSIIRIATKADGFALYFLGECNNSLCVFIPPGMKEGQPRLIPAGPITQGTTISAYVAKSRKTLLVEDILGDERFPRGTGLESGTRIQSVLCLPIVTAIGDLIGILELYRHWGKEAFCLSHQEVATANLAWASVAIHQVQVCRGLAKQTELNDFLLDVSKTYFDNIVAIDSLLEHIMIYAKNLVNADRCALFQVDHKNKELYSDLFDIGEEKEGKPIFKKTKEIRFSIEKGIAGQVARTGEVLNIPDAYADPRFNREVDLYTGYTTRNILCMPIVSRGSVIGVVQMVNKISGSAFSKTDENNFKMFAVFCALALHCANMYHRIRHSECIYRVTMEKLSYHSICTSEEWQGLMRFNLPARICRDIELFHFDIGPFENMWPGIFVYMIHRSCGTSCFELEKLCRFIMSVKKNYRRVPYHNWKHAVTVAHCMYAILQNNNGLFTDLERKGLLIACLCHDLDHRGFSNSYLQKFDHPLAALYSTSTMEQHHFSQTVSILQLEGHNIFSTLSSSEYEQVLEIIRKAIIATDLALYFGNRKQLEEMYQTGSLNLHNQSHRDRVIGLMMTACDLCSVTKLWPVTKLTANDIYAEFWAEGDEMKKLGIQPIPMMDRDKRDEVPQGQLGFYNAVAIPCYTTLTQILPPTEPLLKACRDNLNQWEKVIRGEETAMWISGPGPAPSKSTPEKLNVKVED
The experiment in a line: Inhibition of mouse recombinant GST-tagged PDE10A using [3H]-cAMP as substrate after 30 mins by scintillation proximity assay.

In data set [15] the target is cGMP-dependent 3',5'-cyclic phosphodiesterase (Homo sapiens) (UniProt O00408). Put plainly: Inhibition of human recombinant PDE2A using cAMP as substrate at 1 uM after 30 mins by HTRF method.
The target is the same in data set [16]. The experiment in a line: Inhibition of human recombinant PDE2A using cAMP as substrate at 10 uM after 30 mins by HTRF method. (In general: TR-FRET usually uses a lanthanide donor and a delayed reading to cut background.)
Data set [17] concerns the target Dual 3',5'-cyclic-AMP and -GMP phosphodiesterase 11A (Homo sapiens) (UniProt Q9HCR9). The experiment in a line: Inhibition of human recombinant PDE11A using [3H]-cAMP as substrate at 1 uM after 30 mins by two-step radiometric assay.
The target of data set [18] is cGMP-inhibited 3',5'-cyclic phosphodiesterase 3A (Homo sapiens) (UniProt Q14432). The experiment in a line: Inhibition of human recombinant PDE3A using cAMP as substrate at 1 uM after 30 mins by HTRF method.
Data set [19] addresses 3',5'-cyclic-AMP phosphodiesterase 4D (Homo sapiens) (UniProt Q08499). Put plainly: Inhibition of human recombinant PDE4D using [3H]-cAMP as substrate at 1 uM after 30 mins by two-step radiometric assay.
Data set [20] deals with cGMP-specific 3',5'-cyclic phosphodiesterase (Homo sapiens) (UniProt O76074). The experiment in a line: Inhibition of human recombinant PDE5A using […] as substrate at 1 uM after 30 mins by scintillation proximity assay.
Data set [21] addresses cGMP-inhibited 3',5'-cyclic phosphodiesterase 3A (Homo sapiens) (UniProt Q14432). Put plainly: Inhibition of human recombinant PDE3A using cAMP as substrate at 10 uM after 30 mins by HTRF method.
Data set [22] concerns Rattus norvegicus. Put plainly: Antipsychotic activity in Sprague-Dawley rat prepulse inhibition deficit model assessed as reversal of MK-801-induced effect at 1 mg/kg, ip administered 20 mins prior to MK-801 challenge relative to vehicle-treated control. The format is functional. Set-up: scale not given: the % may be the effect or the level left. The note with it: route intraperitoneal.

For data set [23], the system named is Rattus norvegicus. The experiment in a line: Antipsychotic activity in Sprague-Dawley rat conditioned avoidance response model assessed as avoidance of shock at 3 mg/kg, ip measured after 30 mins relative to vehicle-treated control. The format is functional. The note with it: route intraperitoneal.
Data set [24] deals with Rattus norvegicus. The experiment in a line: Antipsychotic activity in Sprague-Dawley rat […] assessed as reversal of MK-801-induced locomotion at 3 mg/kg, ip administered 2 hrs prior to MK-801 challenge measured every 5 mins for 1 hr starting 15 mins post MK-801 injection relative to vehicle-treated control. It counts as functional. As to conditions: route intraperitoneal.

For data set [25], the system named is Rattus norvegicus. The experiment in a line: Antipsychotic activity in Sprague-Dawley rat […] assessed as reversal of MK-801-induced ataxia at 3 mg/kg, ip administered 2 hrs prior to MK-801 challenge measured every 5 mins for 1 hr starting 15 mins post MK-801 injection relative to vehicle-treated control. It counts as functional. The note with it: route intraperitoneal.

Data set [26] relates to Rattus norvegicus. The experiment in a line: Antipsychotic activity in Sprague-Dawley rat […] assessed as reversal of MK-801-induced stereotypy at 3 mg/kg, ip administered 2 hrs prior to MK-801 challenge measured every 5 mins for 1 hr starting 15 mins post MK-801 injection relative to vehicle-treated control. It counts as functional. The note with it: route intraperitoneal.

Sequence of 3',5'-cyclic-AMP phosphodiesterase 4D (Homo sapiens) (Q08499 whole entry): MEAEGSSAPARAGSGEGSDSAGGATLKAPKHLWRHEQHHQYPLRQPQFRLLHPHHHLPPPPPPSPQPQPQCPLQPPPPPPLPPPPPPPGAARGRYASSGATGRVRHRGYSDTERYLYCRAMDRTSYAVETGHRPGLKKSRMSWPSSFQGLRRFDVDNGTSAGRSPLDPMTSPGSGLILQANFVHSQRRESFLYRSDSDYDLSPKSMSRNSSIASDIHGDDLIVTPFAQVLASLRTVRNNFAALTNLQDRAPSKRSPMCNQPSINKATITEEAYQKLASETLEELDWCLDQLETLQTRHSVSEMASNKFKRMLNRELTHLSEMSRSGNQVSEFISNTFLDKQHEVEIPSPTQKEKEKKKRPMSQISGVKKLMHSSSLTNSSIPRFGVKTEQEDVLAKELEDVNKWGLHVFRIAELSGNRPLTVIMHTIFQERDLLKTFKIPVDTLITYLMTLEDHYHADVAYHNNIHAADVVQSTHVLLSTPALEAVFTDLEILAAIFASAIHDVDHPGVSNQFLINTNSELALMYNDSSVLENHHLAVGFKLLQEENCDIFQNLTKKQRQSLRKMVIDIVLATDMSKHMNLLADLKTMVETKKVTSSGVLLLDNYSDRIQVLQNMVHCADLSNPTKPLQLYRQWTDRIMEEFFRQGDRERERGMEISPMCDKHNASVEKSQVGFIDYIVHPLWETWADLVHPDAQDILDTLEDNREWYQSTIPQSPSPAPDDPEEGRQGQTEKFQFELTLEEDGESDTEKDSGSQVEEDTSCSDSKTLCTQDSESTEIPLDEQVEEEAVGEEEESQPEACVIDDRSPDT
Sequence of cGMP-inhibited 3',5'-cyclic phosphodiesterase 3A (Homo sapiens) (Q14432 whole entry): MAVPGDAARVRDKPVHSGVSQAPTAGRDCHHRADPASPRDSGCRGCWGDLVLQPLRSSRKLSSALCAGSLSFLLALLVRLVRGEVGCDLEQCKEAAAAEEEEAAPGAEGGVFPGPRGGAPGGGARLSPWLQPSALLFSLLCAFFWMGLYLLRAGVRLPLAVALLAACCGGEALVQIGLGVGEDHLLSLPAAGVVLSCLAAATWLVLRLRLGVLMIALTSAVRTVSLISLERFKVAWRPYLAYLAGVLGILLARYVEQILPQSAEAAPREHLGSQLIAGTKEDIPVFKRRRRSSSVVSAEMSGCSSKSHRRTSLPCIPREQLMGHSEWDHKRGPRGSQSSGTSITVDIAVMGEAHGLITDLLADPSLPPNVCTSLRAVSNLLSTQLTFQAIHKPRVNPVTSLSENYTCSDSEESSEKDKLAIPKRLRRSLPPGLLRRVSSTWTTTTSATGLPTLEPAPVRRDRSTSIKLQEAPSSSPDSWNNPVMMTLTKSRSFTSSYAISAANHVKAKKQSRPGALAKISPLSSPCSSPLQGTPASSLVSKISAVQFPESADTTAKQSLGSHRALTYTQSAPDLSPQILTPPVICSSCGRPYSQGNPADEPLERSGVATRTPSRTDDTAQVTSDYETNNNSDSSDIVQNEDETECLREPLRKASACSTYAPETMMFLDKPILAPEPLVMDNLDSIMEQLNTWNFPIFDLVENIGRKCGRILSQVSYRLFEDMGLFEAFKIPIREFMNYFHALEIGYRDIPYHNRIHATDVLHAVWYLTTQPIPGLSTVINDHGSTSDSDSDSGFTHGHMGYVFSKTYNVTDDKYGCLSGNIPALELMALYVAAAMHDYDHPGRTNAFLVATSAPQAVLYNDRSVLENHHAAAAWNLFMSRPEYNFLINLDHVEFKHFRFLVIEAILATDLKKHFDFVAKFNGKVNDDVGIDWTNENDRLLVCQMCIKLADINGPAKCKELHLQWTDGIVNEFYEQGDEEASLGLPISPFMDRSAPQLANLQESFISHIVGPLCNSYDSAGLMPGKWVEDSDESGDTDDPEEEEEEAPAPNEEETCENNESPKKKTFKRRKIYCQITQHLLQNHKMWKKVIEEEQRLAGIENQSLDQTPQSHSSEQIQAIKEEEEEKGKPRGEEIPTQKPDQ
Sequence of cGMP-dependent 3',5'-cyclic phosphodiesterase (Homo sapiens) (O00408 whole entry): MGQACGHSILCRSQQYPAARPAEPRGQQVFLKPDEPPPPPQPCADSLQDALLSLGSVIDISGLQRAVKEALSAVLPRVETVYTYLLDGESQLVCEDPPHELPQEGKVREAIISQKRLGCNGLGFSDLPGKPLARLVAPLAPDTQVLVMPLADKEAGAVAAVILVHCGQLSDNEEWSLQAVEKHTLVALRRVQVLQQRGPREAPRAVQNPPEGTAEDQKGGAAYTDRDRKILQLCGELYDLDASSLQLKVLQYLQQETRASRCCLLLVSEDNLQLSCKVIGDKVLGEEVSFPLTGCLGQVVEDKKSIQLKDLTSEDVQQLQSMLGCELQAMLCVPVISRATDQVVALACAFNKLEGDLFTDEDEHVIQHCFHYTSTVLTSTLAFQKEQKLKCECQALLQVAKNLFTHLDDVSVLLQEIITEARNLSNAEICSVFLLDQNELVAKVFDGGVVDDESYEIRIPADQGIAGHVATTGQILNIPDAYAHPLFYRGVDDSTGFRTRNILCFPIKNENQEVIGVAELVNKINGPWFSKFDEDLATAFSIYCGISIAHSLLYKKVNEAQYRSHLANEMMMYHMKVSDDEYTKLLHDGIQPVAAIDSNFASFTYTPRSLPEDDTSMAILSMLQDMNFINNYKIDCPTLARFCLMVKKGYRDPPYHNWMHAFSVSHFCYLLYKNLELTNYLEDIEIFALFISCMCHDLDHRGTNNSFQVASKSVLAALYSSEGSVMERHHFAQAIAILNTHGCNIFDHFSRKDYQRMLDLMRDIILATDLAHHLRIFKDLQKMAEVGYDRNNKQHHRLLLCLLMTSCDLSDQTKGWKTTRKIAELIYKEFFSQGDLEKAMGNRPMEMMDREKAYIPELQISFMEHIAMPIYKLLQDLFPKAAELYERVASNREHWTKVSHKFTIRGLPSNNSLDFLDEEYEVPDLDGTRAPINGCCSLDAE
T1 sequence (Q9Y233 whole entry): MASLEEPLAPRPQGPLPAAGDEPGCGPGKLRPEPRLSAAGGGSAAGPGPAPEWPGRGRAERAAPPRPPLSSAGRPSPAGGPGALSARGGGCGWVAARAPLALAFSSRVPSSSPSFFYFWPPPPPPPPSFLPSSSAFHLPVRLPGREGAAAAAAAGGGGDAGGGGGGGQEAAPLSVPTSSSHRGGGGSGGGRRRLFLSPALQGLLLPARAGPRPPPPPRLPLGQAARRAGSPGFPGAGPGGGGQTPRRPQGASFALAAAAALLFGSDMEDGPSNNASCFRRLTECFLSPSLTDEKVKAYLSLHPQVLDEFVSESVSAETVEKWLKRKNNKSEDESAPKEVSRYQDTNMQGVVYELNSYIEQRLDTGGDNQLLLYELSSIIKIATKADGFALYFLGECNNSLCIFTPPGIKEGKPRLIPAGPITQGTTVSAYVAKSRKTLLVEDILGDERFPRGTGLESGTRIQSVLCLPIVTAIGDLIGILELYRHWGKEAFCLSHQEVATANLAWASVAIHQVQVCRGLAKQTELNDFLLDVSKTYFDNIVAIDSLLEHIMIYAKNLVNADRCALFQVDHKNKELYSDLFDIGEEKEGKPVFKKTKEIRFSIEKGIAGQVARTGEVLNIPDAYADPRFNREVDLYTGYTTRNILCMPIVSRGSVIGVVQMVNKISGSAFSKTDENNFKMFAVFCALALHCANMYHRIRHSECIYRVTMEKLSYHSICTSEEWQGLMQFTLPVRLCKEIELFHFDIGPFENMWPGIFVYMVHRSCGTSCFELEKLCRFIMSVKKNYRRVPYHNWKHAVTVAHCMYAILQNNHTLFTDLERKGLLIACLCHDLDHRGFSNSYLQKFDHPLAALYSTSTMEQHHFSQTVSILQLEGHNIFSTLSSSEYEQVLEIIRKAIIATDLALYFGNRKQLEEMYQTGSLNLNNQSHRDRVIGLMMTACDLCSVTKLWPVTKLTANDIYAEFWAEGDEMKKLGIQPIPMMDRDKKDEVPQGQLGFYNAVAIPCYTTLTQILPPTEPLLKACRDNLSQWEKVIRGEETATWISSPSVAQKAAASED
Sequence of High affinity 3',5'-cyclic-AMP phosphodiesterase 7A (Homo sapiens) (Q13946 whole entry): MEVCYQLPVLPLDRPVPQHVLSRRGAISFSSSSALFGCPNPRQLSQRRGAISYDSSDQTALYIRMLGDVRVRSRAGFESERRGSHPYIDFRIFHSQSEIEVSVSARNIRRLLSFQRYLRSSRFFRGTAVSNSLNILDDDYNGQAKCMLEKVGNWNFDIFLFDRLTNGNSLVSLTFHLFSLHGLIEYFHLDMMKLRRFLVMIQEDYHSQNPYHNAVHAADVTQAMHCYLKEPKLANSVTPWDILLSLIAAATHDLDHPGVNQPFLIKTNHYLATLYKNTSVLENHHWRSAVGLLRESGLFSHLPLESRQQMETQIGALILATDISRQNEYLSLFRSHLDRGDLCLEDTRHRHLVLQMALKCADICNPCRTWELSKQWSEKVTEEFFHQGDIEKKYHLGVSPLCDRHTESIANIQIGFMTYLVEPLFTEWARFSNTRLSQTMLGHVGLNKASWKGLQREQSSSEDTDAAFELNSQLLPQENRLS

On to `Cn1cc(-c2ccc(Oc3ncccc3-c3ccncc3)cc2)c2ncccc21`, for which the inhibition in [1] came to 98%; in data set [2], 5%; in data set [6], 29%; in data set [7], 23.2%; in data set [10] it was 39.9%; in [12], 18%. The inhibition came to 16.6% in data set [15]; 69.6% in data set [16]; 3% in data set [17]; 0.1% in data set [18]; 0.9% in data set [19]; 2.2% in data set [20]. Moreover, the inhibition in [21] came to 7.4%. Also, the remaining at 1 h was 39.8% in [3]; 40.2% in [5]; 38.4% in data set [8]; 39.7% in [9]; 59.6% in [11]. The IC50 was found to be 5.8 nM in data set [4], 1.3 nM in data set [13] and 4.1 nM in data set [14].
`Cc1nc2n(c(=O)c1CCN1CCC(c3noc4cc(F)ccc34)CC1)CCCC2` [RISPERIDONE]: in [22], the Activity was found to be 67%.
In the case of `Cn1cc(-c2ccc(Oc3ncccc3-c3ccncc3)cc2)c2ncc(Cl)cc21`, the inhibition in [1] amounted to 95.4%; in data set [2], 10.5%; in data set [6], 3%; in data set [7], 3.1%; in data set [10] it was 17.5%; in data set [12], 6.9%. For the same compound, the inhibition in data set [15] is 12.3%; in data set [16], 12.6%; in data set [17], 8.5%; in data set [18] it was 0%; in data set [19] it was 3.5%; in data set [20], 2.4%. Moreover, the inhibition in data set [21] was determined as 0%. Further, the remaining at 1 h is 54.5% in [3]; 67.1% in data set [5]; 64% in data set [8]; 54.7% in [9]; 80.9% in data set [11]. In addition, the IC50 in [4] turned out to be 7.1 nM; in [13] it was 2.6 nM; in [14] it was 6.7 nM.
Regarding `Cc1cnc2c(-c3ccc(Oc4ncccc4-c4ccncc4)cc3)cn(C)c2c1`, the inhibition amounted to 98.3% in [1]; 3.7% in [2]; 8.3% in [6]; 16.7% in data set [7]; 28.3% in data set [10]; 10.8% in data set [12]. The inhibition was 24.9% in data set [15]; 43% in data set [16]; 0.1% in data set [17]; 0.9% in data set [18]; 0% in data set [19]; 9.6% in data set [20]. In addition, the inhibition in data set [21] was 6.4%. The remaining at 1 h in [3] was 13.7%; in [5], 48.1%; in data set [8], 46.2%; in data set [9], 32.3%; in data set [11], 62.5%. Also, the IC50 in [4] came out at 0.8 nM; in data set [13], 0.3 nM; in data set [14] it was 1.2 nM.
Take `Cn1cc(-c2ccc(Oc3nccnc3-c3ccncc3)cc2)c2nc3ccccc3cc21`: the inhibition in data set [1] was determined as 97.2%; in data set [2], 4%; in data set [6], 6.8%; in data set [7], 19.3%; in [10] it was 15.8%; in [12], 7.6%. Moreover, the inhibition was 5.3% in data set [15]; 34.1% in data set [16]; 0.8% in data set [17]; 0.8% in data set [18]; 0% in [19]; 9.4% in [20]. The inhibition in data set [21] was determined as 2.5%. The remaining at 1 h worked out at 71% in data set [3]; 75.1% in data set [5]; 75% in [8]; 92% in data set [9]; 96% in [11]. Moreover, the IC50 in data set [4] came out at 29.4 nM; in [13], 8.54 nM; in [14], 22.6 nM.
On to `Cn1cc(-c2ccncc2)c(-c2ccc(OCc3ccc4ccccc4n3)cc2)n1` [MARDEPODECT], for which the Activity came to 96% in data set [23], 80% in data set [24], 18% in data set [25] and 32% in [26].

What is called inhibition is the drop in the measured response relative to a control, in per cent. As usually defined, the IC50 is the point on the concentration scale where inhibition reaches its midpoint.
